{"source": "patent US4780462A", "about": "“Antihypertensive 1,5-benzothiazepine derivatives and compositions thereof” (Kotokuki Seiya Kau Co., Ltd., priority 1986, dated 1988)", "key": {"[1]": {"tested_on": "anesthetized normotensive rats", "experiment": "Antihypertensive activity on anesthetized normotensive rats", "assay_type": "in vivo", "details": "dose which lowers the mean blood pressure by 15 mmHg, i.v. (femoral vein); urethane anesthetized normotensive male Wistar rats", "description": "The antihypertensive activities of the compounds on anesthetized normotensive rats were tested according to the method of H. Sogabe.^(1) Male Wistar rats weighing 200-300 g were anesthetized with urethane (1.2 g/kg. i.v.). Blood pressure was measured by a transducer (Nihon Koden RT-5) connected the catheter inserted into the femoral artery. The test compounds in physiological saline (0.1 ml/100 g. B.W.) were injected via the femoral vein. The antihypertensive activity was assessed by comparing with MBP15 (dose which lowers the mean blood pressure by 15 mmHg, mg/kg i.v.).\n(1) Hirobumi Sogabe \"Jikken Kouketsuatsushou nyuumon\" p227 (Eikoudo 1968)."}, "Guinea-pig taenia caecum": {"tested_on": "Guinea-pig taenia caecum", "experiment": "Ca++-antagonistic activity (isolated guinea-pig taenia caecum)", "details": "Cavia porcellus, 0.05 h; Ca++-induced contraction of taenia caecum, Ca++-free Krebs Ringer; pretreatment with compound 3 minutes before; read-out: PA2 value (converted)", "description": "Ca^++ -Antagonistic activity. Experiments are carried out according to the method of M. Ferrari (Arch. Intern. Pharmacoadyn. 174, 223 (1968) Guinea-pig taenia caecum is isolated and suspended in a bath which is filled with Ca^++ -free Krebs Ringer solution for 30 minutes. In this condition, taenia caecum is contracted by elevating Ca^++ -ion concentration of Krebs Ringer and obtained a dose-response curve against Ca^++ -ion. Pretreatment with the compound of this invention before 3 minutes, and obtained a dose-response curve under the existence of the compound of this invention.\nFrom these two dose-response curves, PA2 value is calculated and PA2 is expressed as index of activities. (Table 1)"}, "[2]": {"tested_on": "isolated guinea-pig heart", "experiment": "Coronary artery dilating activity (Rangendorf method, isolated guinea-pig heart)", "details": "coronary blood flow examined for 2 minutes", "source_text": "The coronary artery dilating activity of the compounds is estimated by Rangendorf method (Pfugers. Arch. Ges. Physiol. 62, 291 (1895)) using the isolated guinea-pig heart."}, "[3]": {"experiment": "Acute toxicity in mice per os", "details": "mouse, in vivo, po", "source_text": "The acute toxicity of the compounds of this invention in mice per os is as follows. (Table 4)"}}}
{"smiles": "Cc1cccc(C)c1SCCNCCC(=O)N1CCCSc2ccccc21", "note": "[Compound 17, 5-[3-(2-(2,6-dimethylphenylthio)ethylamino)propionyl]-2,3,4,5-tetrahydro-1,5-benzothiazepine·fumarate]", "values": [{"measurement": "Antihypertensive act. (M.B.P.15)", "setting": "[1]", "value": 9.3, "unit": "µg"}]}
{"smiles": "COc1cccc(OC)c1OCCNCCC(=O)N1CCCSc2ccccc21", "note": "[Compound 1, 5-[3-(2-(2-,6-dimethoxyphenoxy)ethylamino)-propionyl]-2,3,4,5-tetrahydro-1,5-benzothiazepine·fumarate]", "values": [{"measurement": "Kb", "setting": "Guinea-pig taenia caecum", "value": 813, "unit": "nM"}]}
{"smiles": "O=C(CCNCCOc1ccc([N+](=O)[O-])cc1)N1CCCSc2ccccc21", "note": "[Compound 16, 5-[3-(2-(4-nitrophenoxy)ethylamino)propionyl]-2,3,4,5-tetrahydro-1,5-benzothiazepine·fumarate]", "values": [{"measurement": "maximum increased blood flow", "setting": "[2]; 10 μg/heart", "value": 4.2, "unit": "mL"}]}
{"smiles": "Cc1cc(C)c(OCCNCCC(=O)N2CCCSc3ccccc32)c(C)c1", "note": "[Compound 12, 5-[3-(2-(2,4,6-trimethylphenoxy)ethylamino)propionyl]-2,3,4,5-tetrahydro-1,5-benzothiazepine·fumarate]", "values": [{"measurement": "maximum increased blood flow", "setting": "[2]; 10 μg/heart", "value": 11.3, "unit": "mL"}, {"measurement": "maximum increased blood flow", "setting": "[2]; 30 μg/heart", "value": 18.3, "unit": "mL"}, {"measurement": "Kb", "setting": "Guinea-pig taenia caecum", "value": 55, "unit": "nM"}]}
{"smiles": "O=C(CCNCCOc1ccc(Cl)cc1Cl)N1CCCSc2ccccc21", "note": "[Compound 13, 5-[3-(2-(2,4-dichlorophenoxy)ethylamino)propionyl]-2,3,4,5-tetrahydro-1,5-benzothiazepine·fumarate]", "values": [{"measurement": "Antihypertensive act. (M.B.P.15)", "setting": "[1]", "value": 3.5, "unit": "µg"}, {"measurement": "Kb", "setting": "Guinea-pig taenia caecum", "value": 126, "unit": "nM"}]}
{"smiles": "COc1ccc(OCCNCCC(=O)N2CCCSc3ccccc32)cc1", "note": "[Compound 8, 5-[3-(2-(4-methoxyphenoxy)ethylamino)propionyl]-2,3,4,5-tetrahydro-1,5-benzothiazepine·fumarate]", "values": [{"measurement": "Kb", "setting": "Guinea-pig taenia caecum", "value": 603, "unit": "nM"}]}
{"smiles": "Nc1cccc(OCCNCCC(=O)N2CCCSc3ccccc32)c1", "note": "[Compound 6, 5-[3-(2-(3-aminophenoxy)ethylamino)propionyl]-2,3,4,5-tetrahydro-1,5-benzothiazepine·fumarate]", "values": [{"measurement": "maximum increased blood flow", "setting": "[2]; 10 μg/heart", "value": 4.6, "unit": "mL"}, {"measurement": "maximum increased blood flow", "setting": "[2]; 30 μg/heart", "value": 6.0, "unit": "mL"}]}
{"smiles": "O=C(CCNCCSc1ccc([N+](=O)[O-])cc1)N1CCCSc2ccccc21", "note": "[Compound 5, 5-[3-(2-(4-nitrophenylthio)ethylamino)propionyl]-2,3,4,5-tetrahydro-1,5-benzothiazepine·fumarate]", "values": [{"measurement": "Antihypertensive act. (M.B.P.15)", "setting": "[1]", "value": 2.0, "unit": "µg"}, {"measurement": "Kb", "setting": "Guinea-pig taenia caecum", "value": 97.7, "unit": "nM"}]}
{"smiles": "CC(C)c1cccc(C(C)C)c1OCCNCCC(=O)N1CCCSc2ccccc21", "note": "[Compound 3, 5-[3-(2-(2,6-diisopropylphenoxy)ethylamino)-propionyl]-2,3,4,5-tetrahydro-1,5-benzothiazepine·fumarate]", "values": [{"measurement": "LD50", "setting": "[3]", "value": 1500, "unit": "mg/kg"}, {"measurement": "Antihypertensive act. (M.B.P.15)", "setting": "[1]", "value": 1.35, "unit": "µg"}]}
{"smiles": "Cc1cccc(OCCNCCC(=O)N2CCCSc3ccccc32)c1", "note": "[Compound 11, 5-[3-(2-(3-methylphenoxy)ethylamino)propionyl]-2,3,4,5-tetrahydro-1,5-benzothiazepine·fumarate]", "values": [{"measurement": "maximum increased blood flow", "setting": "[2]; 3 μg/heart", "value": 7.7, "unit": "mL"}, {"measurement": "maximum increased blood flow", "setting": "[2]; 30 μg/heart", "value": 16.5, "unit": "mL"}, {"measurement": "Antihypertensive act. (M.B.P.15)", "setting": "[1]", "value": 34.7, "unit": "µg"}]}
{"smiles": "Cc1cccc(C)c1OCCNCCC(=O)N1CCCSc2ccccc21", "note": "[Compound 4, 5-[3-(2-(2,6-dimethylphenoxy)ethylamino)propionyl]-2,3,4,5-tetrahydro-1,5-benzothiazepine·fumarate]", "values": [{"measurement": "maximum increased blood flow", "setting": "[2]; 10 μg/heart", "value": 7.2, "unit": "mL"}, {"measurement": "maximum increased blood flow", "setting": "[2]; 30 μg/heart", "value": 19.2, "unit": "mL"}, {"measurement": "Kb", "setting": "Guinea-pig taenia caecum", "value": 102, "unit": "nM"}]}
{"smiles": "Nc1ccccc1OCCNCCC(=O)N1CCCSc2ccccc21", "note": "[Compound 15, 5-[3-(2-(2-aminophenoxy)ethylamino)propionyl]-2,3,4,5-tetrahydro-1,5-benzothiazepine·fumarate]", "values": [{"measurement": "LD50", "setting": "[3]", "value": 374, "unit": "mg/kg"}, {"measurement": "maximum increased blood flow", "setting": "[2]; 30 μg/heart", "value": 2.0, "unit": "mL"}]}
{"smiles": "O=C(CCNCCOc1cccc([N+](=O)[O-])c1)N1CCCSc2ccccc21", "note": "[Compound 7, 5-[3-(2-(3-nitrophenoxy)ethylamino)propionyl]-2,3,4,5-tetrahydro-1,5-benzothiazepine·fumarate]", "values": [{"measurement": "Antihypertensive act. (M.B.P.15)", "setting": "[1]", "value": 4.2, "unit": "µg"}, {"measurement": "Kb", "setting": "Guinea-pig taenia caecum", "value": 245, "unit": "nM"}]}
